These results are taken from patent publication US20190016689A1, “NOVEL FLUORINATED QUINAZOLINE DERIVATIVES AS EGFR INHIBITORS” (TRILLIUM THERAPEUTICS INC., priority 2016, published 2019).

In general, pIC50 refers to −log10 of the IC50, conventionally taken in molar units. Read a low pIC50 as a large IC50. A word on the GI50: it is the concentration that inhibits growth by half. As usually defined, the half-life is the time needed for the level to fall by half in the phase considered. A higher half-life goes with slow loss. One may read the microsomal CLint as a measure of how fast metabolising enzymes remove a compound, apart from limits set by blood flow.

pIC50: −log10 of the molar value. Read-outs that look alike come from different tables or passages of the source.

A short description of data set [1]: Plasma protein binding (equilibrium dialysis). The conditions noted are these: pH 7.4, dialysis 6 hours. Type of data set: in vitro ADME. How it is done: Prepare a basic solution by dissolving 14.2 g/L Na2HPO4 and 8.77 g/L NaCl in deionized water. Store at 4° C. for up to 7 days. Prepare an acidic solution by dissolving 15.6 g/L NaH2PO4.2H2O and 8.77 g/L NaCl in deionized water. Store at 4° C. for up to 7 days. Titrate the basic solution with the acidic solution to pH 7.4. Store at 4° C. for up to 7 days. Check pH on the day of experiment and adjust if outside specification of 7.4±0.1.
b—Preparation of Dialysis Membranes Soak the dialysis membranes in ultrapure water for 60 minutes to separate strips, then in 20% ethanol for 20 minutes, finally in dialysis buffer for 20 minutes. c—Preparation of Plasma
Thaw the frozen plasma immediately in a 37° C. water bath.
Centrifuge plasma at 3,220 g for 10 minutes at room temperature to remove clots and collect supernatant into a fresh tube. Check and record the pH of the plasma.
Note: a) Only use plasma that has been thawed no more than twice since arrival. b) Only use plasma within the range of pH 7 to pH 8.
The working solutions of test compound and control compound ketoconazole are prepared in 50% water/50% acetonitrile and DMSO at the concentration of 200 μM, respectively. And then remove 3 μL of working solution to mix with 597 μL of human, rat and mouse plasma to achieve final concentration of 1 μM (0.5% DMSO). Vortex thoroughly.
Assemble the dialysis set up following the manufacturer's instructions. Load cells with 120 μL of plasma sample and dialyzed against equal volume of dialysis buffer (PBS). The assay is performed in duplicate. Seal the dialysis plate and place the plate in an incubator at 37° C. with 5% CO2 at approximately 100 rpm for 6 hours. At the end of dialysis, remove seal and pipette 50 μL each of post-dialysis samples from both buffer and plasma chambers into separate tubes in plate.
Add 50 μL of blank plasma to the buffer samples, and an equal volume of PBS to the collected plasma samples. Add 300 μL of room temperature quench solution (acetonitrile containing internal standards (IS, 200 nM Labetalol, 100 nM Alprazolam and 2 μM Ketoprofen)) to precipitate protein. Vortex for 5 minutes. Samples in plate are centrifuged at 3,220 g for 30 minutes at room temperature. Transfer 100 μL of the supernatant to a new plate. The supernatant may be diluted with 100 μL or 200 μL water according to the LC/MS signal response and peak shape. Mix well and analyze samples using LC/MS/MS.
In general terms: Equilibrium dialysis compares concentrations on both sides of a semipermeable membrane.

The next data set deals with CYP 2D6 (Homo sapiens, UniProt P10635). The experiment in a line: CYP450 inhibition. Format: in vitro ADME. Here is the method:
(§1) Prepare stock solutions of the test compound and positive control compounds described in Table 8 in DMSO at 0, 0.2, 1, 2, 10, 50, 200, 2000 and 10000 μM. Transfer 1 μL of the stock solutions to the Incubation Plate. The final concentrations of test compound or positive control compound are 0, 0.001, 0.005, 0.01, 0.05, 0.25, 1, 10 and 50 μM. All experiments are performed in duplicate.

Another data set deals with CYP 2C9 (Homo sapiens, UniProt P11712). The experiment in a line: CYP450 inhibition. Format: in vitro ADME. Here is the method:
as §1

For the next data set, the target named is CYP 1A2 (Homo sapiens, UniProt P05177). The experiment in a line: CYP450 inhibition. Format: in vitro ADME. How it is done: as §1
The next data set addresses CYP 2C19 (Homo sapiens, UniProt P33261). The experiment in a line: CYP450 inhibition. Type of data set: in vitro ADME. How it is done: as §1
The next data set deals with M14. The experiment in a line: cells. The conditions noted are these: Homo sapiens, M14, 48 h; for CC50: read-out: LC50.
The next data set deals with SK-MEL-5. The experiment in a line: NCI screening panel (SRB). Type of data set: cell-based. The conditions noted are these: Homo sapiens, SK-MEL-5 (Melanoma), 48 h; for CC50: read-out: LC50 (the source's name).
The target of the next data set is ERBB4 (Homo sapiens, UniProt Q15303). The experiment in a line: Kinase assays, selectivity panel (qPCR). The conditions noted are these: read-out: % Control @ 300 nM. For orientation: Real-time PCR tracks product formation cycle by cycle.
In the next data set the target is EGFR (L858R) (Homo sapiens, UniProt P00533, L858R). The experiment in a line: Kinase assays, selectivity panel (qPCR). Particulars: read-out: % Control @ 300 nM.
For a further data set, the target named is LCK (Lymphocyte TK) (Homo sapiens, UniProt P06239). The experiment in a line: Kinase assays, selectivity panel (qPCR). The conditions noted are these: read-out: % Control @ 300 nM.
In the next data set the test system is A498. The experiment in a line: NCI screening panel (SRB). Format: cell-based. Particulars: Homo sapiens, A498 (Renal), 48 h; for CC50: read-out: LC50 (the source's name).
Another data set is described as follows: Microsomal stability. Type of data set: in vitro ADME, mouse (CD-1, male). Particulars: Mouse liver microsomes with NADPH; for Remaining Percentage (%) after 60 min: 1 μM; for half-life at 1 μM / microsomal CLint at 1 μM: male, CD-1. Here is the method: Working stocks were initially diluted to a concentration of 40.0 μM in 0.1 M potassium phosphate buffer before addition to the reaction vials. Pooled mouse (CD-1, male) or human (50 donors) liver microsomes were utilized at a final concentration of 0.5 mg/ml. […] Reactions were carried out at 37° C. in a shaker, and the final concentration of DMSO was kept constant at 0.01%. The final volume for each reaction was 100 μL, which includes the addition of an NADPH-Regeneration solution (NRS) mix. This NRS mix is comprised of glucose 6-phosphate dehydrogenase (0.4 U/mL), NADP+(1.3 mM), MgCl2 (3.3 mM), and glucose 6-phosphate (3.3 mM) in assay mixtures. […] Samples were then centrifuged at 4,000 rpm for 10 minutes to remove debris and precipitated protein. Approximately 150 μL of supernatant was subsequently transferred to a new 96 well microplate for LC/MS analysis.
Narrow-window mass extraction LC/MS analysis was performed for all samples using a Waters Xevo quadrupole time-of-flight (QTof) mass spectrometer and an ACQUITY UPLC system, to determine relative peak areas of parent compound.

Data set [2] deals with EGFR (L747-S752del, P753S) (Homo sapiens, UniProt P00533, DEL747-752/P753S). The experiment in a line: Kinase assays, selectivity panel (qPCR). Particulars: read-out: % Control @ 300 nM.
The next data set addresses EGFR (Homo sapiens, UniProt P00533). The experiment in a line: Kinase assays, selectivity panel (qPCR). The conditions noted are these: read-out: % Control @ 300 nM.
The next data set has as its system HS578T. The experiment in a line: NCI screening panel (SRB). Format: cell-based. Particulars: Homo sapiens, Hs-578T, HS578T (Breast), 48 h; for CC50: read-out: LC50 (the source's name).
Setting [3] is: human, read-out: Human Plasma % Bound (converted).
[4] abbreviates: mouse, read-out: Mouse Plasma % Bound (converted).
Where [5] appears, read: rat, read-out: Rat Plasma % Bound (converted).

CYP 1A2, sequence (P05177 whole entry): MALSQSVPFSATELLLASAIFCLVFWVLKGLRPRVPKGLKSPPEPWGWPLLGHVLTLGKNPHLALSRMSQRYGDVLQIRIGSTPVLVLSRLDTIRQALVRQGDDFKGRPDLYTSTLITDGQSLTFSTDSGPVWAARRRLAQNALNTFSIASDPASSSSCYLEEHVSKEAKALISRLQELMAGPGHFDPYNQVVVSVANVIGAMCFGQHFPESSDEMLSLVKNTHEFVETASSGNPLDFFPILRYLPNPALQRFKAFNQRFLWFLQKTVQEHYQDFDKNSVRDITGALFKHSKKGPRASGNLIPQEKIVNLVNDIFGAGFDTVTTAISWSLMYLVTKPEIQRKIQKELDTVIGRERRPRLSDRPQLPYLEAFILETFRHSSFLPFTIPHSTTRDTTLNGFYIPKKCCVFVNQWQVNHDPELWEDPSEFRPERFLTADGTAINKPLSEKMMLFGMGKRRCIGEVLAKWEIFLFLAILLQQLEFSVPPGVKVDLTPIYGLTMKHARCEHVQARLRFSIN
EGFR (L858R), sequence (P00533 25-1210 L858R): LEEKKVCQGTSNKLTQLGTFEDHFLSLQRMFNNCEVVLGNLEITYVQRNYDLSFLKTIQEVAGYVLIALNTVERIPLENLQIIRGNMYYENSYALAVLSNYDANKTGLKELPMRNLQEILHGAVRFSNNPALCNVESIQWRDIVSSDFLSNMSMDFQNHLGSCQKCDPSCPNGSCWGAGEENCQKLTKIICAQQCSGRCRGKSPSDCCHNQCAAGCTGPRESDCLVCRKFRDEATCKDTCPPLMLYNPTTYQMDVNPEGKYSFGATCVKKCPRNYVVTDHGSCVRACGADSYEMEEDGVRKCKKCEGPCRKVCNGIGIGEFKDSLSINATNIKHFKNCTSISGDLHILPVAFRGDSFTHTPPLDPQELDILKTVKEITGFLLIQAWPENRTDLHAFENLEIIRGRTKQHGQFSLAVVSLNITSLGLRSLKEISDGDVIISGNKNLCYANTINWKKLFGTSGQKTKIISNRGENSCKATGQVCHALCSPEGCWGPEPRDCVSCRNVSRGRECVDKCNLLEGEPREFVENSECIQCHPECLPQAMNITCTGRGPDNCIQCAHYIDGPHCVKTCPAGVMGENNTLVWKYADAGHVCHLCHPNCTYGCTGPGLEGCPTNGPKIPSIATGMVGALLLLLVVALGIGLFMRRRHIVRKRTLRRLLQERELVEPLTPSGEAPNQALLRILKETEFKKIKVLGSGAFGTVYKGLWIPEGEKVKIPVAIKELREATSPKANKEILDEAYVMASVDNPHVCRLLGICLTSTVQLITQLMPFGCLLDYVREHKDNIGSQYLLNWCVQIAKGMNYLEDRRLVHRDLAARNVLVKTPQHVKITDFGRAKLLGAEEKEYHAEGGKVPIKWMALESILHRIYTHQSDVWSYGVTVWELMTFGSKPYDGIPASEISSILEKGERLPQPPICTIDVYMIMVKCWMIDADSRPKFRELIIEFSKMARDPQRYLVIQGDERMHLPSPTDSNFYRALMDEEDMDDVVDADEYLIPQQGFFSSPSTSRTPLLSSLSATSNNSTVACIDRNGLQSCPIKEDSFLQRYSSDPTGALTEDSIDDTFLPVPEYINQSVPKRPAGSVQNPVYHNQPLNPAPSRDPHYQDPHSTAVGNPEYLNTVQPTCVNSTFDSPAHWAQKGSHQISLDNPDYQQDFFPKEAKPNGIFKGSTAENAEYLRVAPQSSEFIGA
ERBB4, sequence (Q15303 26-1308): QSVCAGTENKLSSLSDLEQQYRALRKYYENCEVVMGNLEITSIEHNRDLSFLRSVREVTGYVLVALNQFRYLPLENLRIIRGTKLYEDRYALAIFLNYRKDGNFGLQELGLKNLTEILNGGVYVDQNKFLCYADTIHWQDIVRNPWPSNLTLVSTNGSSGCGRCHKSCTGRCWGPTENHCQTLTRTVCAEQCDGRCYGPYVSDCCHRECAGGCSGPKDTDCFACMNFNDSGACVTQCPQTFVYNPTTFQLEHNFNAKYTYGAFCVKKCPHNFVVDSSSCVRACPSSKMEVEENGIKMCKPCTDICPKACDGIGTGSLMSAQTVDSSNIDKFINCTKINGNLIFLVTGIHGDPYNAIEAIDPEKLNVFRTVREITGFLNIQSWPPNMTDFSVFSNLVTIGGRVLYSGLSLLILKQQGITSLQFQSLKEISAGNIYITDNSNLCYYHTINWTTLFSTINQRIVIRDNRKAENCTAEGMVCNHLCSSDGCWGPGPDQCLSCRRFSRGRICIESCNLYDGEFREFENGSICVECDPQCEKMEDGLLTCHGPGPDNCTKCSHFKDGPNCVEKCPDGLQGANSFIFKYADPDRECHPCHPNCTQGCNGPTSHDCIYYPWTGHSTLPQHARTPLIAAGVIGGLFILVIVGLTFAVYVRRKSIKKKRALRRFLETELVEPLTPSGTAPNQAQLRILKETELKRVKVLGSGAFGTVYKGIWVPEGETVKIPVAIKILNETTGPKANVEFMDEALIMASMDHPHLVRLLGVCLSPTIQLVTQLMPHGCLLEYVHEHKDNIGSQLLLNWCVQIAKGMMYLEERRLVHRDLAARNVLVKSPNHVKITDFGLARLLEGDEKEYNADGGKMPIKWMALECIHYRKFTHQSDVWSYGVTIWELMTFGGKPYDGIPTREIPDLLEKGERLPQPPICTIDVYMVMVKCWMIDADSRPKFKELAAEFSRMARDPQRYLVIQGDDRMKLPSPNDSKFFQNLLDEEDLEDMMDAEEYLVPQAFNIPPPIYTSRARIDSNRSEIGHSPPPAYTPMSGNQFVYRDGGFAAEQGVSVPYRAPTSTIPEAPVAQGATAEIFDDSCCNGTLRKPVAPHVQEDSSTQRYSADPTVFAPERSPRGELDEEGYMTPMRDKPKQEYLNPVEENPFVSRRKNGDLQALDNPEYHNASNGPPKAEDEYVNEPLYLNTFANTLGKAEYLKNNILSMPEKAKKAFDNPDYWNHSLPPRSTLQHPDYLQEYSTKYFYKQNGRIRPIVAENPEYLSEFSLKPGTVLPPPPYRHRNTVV
CYP 2D6, sequence (P10635 whole entry): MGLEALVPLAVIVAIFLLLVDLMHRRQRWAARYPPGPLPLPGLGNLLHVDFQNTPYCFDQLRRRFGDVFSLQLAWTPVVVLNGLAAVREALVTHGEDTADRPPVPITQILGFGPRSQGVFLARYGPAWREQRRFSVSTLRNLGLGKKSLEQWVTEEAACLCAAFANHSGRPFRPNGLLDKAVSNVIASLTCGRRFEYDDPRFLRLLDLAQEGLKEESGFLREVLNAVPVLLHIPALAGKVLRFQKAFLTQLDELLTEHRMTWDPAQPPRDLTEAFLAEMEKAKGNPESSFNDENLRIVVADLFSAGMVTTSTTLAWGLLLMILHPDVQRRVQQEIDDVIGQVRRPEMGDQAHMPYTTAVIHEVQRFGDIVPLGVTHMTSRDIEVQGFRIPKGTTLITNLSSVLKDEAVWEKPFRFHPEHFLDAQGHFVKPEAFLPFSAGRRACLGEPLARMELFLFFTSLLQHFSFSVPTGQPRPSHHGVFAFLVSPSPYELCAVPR
EGFR, sequence (P00533 25-1210): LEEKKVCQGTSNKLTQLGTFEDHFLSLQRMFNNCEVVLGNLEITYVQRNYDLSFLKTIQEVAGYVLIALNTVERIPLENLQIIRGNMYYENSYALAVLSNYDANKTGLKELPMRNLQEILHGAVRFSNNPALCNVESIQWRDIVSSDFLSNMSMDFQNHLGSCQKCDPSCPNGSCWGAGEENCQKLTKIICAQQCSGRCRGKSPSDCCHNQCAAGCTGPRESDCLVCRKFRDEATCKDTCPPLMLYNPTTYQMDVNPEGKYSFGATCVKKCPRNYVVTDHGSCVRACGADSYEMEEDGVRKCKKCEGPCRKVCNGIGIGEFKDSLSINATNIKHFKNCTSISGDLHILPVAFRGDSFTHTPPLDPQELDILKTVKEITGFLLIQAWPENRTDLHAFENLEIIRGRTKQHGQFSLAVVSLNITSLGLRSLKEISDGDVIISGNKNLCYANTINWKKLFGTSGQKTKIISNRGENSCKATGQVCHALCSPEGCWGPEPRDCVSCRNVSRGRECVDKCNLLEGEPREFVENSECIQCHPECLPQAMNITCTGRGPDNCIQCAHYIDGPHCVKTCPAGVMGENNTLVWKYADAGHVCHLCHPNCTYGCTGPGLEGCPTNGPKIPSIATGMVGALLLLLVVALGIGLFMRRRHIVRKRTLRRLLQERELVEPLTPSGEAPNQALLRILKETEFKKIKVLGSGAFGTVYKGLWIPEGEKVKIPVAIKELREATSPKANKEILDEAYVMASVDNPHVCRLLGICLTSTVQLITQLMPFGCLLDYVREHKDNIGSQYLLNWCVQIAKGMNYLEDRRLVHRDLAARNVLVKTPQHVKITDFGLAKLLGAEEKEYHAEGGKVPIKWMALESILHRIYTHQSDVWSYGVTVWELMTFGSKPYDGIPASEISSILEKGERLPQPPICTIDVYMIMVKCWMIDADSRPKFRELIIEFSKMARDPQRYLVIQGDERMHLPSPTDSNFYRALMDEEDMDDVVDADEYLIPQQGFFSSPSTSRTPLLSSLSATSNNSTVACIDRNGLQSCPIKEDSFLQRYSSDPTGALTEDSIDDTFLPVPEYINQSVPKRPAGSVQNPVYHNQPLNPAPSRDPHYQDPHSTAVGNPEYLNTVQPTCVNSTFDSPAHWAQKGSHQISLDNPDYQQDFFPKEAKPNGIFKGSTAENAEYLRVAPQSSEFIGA

Take `CN(C)C/C=C/C(=O)Nc1cc2c(Nc3ccc(F)c(Cl)c3)ncnc2cc1O[C@H]1CCOC1` [Afatinib, reference compound]: the fraction unbound at 6 h, 1 μM in data set [1] (setting [3]) was 0.08; in data set [1] (setting [4]) it was 0.0666; in data set [1] (setting [5]), 0.0896. Further, the pIC50 was 4.55 against CYP 2D6, 4.46 on CYP 2C9, under 4.30 on CYP 1A2 and 4.32 against CYP 2C19.
In the case of `CN(C)C/C=C/C(=O)Nc1cc2c(Nc3cccc(Cl)c3F)ncnc2cc1OCCOC(F)F.O=C(O)/C=C\C(=O)O` [Example I-5-MA, (E)-N-[4-(3-chloro-2-fluoro-anilino)-7-[2-(difluoromethoxy)ethoxy]quinazolin-6-yl]-4-(dimethylamino)but-2-enamide dimaleic acid salt], the fraction unbound at 6 h, 1 μM in [1] (setting [3]) was 0.117; in [1] (setting [4]), 0.0975; in [1] (setting [5]) it was 0.0771. Moreover, the negative logarithm of the IC50 (pIC50) against CYP 2D6 is 4.59; against CYP 2C9 it was 4.52; on CYP 1A2, under 4.30; on CYP 2C19, 4.54.
Turning to `CN(C)C/C=C/C(=O)Nc1cc2c(Nc3ccc(F)c(Cl)c3F)ncnc2cc1OCCOC(F)F.O=C(O)/C=C\C(=O)O.O=C(O)/C=C\C(=O)O` [Example I-9-MA, (E)-N-[4-(3-chloro-2,4-difluoro-anilino)-7-[2-(difluoromethoxy)ethoxy]quinazolin-6-yl]-4-(dimethylamino)but-2-enamide di-maleic acid salt], the GI50 in the data set with M14 was found to be 1.44 µM; in the data set with SK-MEL-5, 1.65 µM; with A498, 0.319 µM; with HS578T, 1.24 µM. Also, the CC50 in the data set on M14 is 11 µM; in the data set with SK-MEL-5 it was 7.39 µM; with A498 it was 6 µM; in the data set with HS578T, over 100 µM. Further, the remaining activity at 0.3 µM on ERBB4 stood at 1.8%; on EGFR (L858R), 0%; at LCK (Lymphocyte TK), 1.3%; in [2], 2.8%; at EGFR it was 0.7%. Also, the “Remaining Percentage (%) after 60 min” value in “Microsomal stability” was determined as 30.53%. The molecule further came in with a half-life at 1 μM in “Microsomal stability” of 35.2 min. Further, in the data set “Microsomal stability”, the microsomal CLint at 1 μM was 39.4 µL/min/mg.
On to `O=C(/C=C/CN1CCCCC1)Nc1cc2c(Nc3ccc(F)c(Cl)c3F)ncnc2cc1OCCOC(F)F.O=C(O)/C=C\C(=O)O.O=C(O)/C=C\C(=O)O` [Example I-10-MA, (E)-N-[4-(3-chloro-2,4-difluoro-anilino)-7-[2-(difluoromethoxy)ethoxy]quinazolin-6-yl]-4-(1-piperidyl)but-2-enamide di-maleic acid salt], for which the 50% growth inhibitory concentration (GI50) with M14 is 1.82 µM; in the data set with SK-MEL-5, 1.63 µM; in the data set with A498 it was 0.313 µM; in the data set on HS578T, 1.41 µM. The CC50 is over 100 µM in the data set with M14, 6.25 µM in the data set on SK-MEL-5, 5.92 µM in the data set on A498 and over 100 µM in the data set with HS578T. Besides, the remaining activity at 0.3 µM came to 3.2% at ERBB4; 0.4% on EGFR (L858R); 1.3% on LCK (Lymphocyte TK); 2.5% in [2]; 2.7% on EGFR. For the same molecule, the “Remaining Percentage (%) after 60 min” value in the data set “Microsomal stability” was 48.95%. In the data set “Microsomal stability”, this molecule registered a half-life at 1 μM of 57.8 min. In addition, the microsomal CLint at 1 μM in “Microsomal stability” stood at 24 µL/min/mg.
